How the values were obtained:
[1] = system: rat fat cells; experiment: Inhibition of free fatty acid release from epinephrine-stimulated rat fat cells; type: cell-based; settings: 10^-5 M epinephrine, 3 hours at 37° C., VOSO4 is 1.00 mM, other values are relative to it, read-out: IC50 (mM), concentration that inhibits 50% fatty acid release
Method: According to the method described in Biol. Pharm.
In silicon-processed vials, the fat cells isolated in the above (2.5×10^6 cells/ml) were pre-incubated in 1 ml of KRB buffer that contains a varying concentration (10^−4, 5×10^−4, 10^−3 M) of VOSO4 different Zn(II) complexes of the invention and 20 mg/ml of BSA, at 37° C. for 0.5 hours. Next, 10^−5 M of epinephrine was added to the reaction mixture, and the resulting solution was incubated at 37° C. for 3 hours. The reaction was stopped by cooling the mixture with ice, and the mixture was centrifuged at 3000 rpm for 10 minutes. The free fatty acid (FFA) level in the extracellular solution was measured with an NEFA kit, and IC50 of the test compound was calculated.

[2] = system: KK-A^y mice; experiment: Glucose tolerance (glucose load) test in KK-A^y mice after 14-day administration; type: in vivo; settings: for effect in glucose load test compared with Zn(2-AM-py)2Cl2 or Zn(Car)2Cl2 / diabetic condition in glucose load test: FIG. 21 and FIG. 22, 14-day intraperitoneal administration; for diabetic condition in glucose load test: vs diabetic control mice
Excerpt: This is a glucose load test effected according to the method described in Biochem. Biophys. Res. Comm., 281, 1190-1193 (2001), in which the zinc(II) complex of the invention was intraperitoneally administered to KK-A^y mice for 14 days or was not thereto. […]

IC50 [1] [mM] | Molecule | further results
0.81 | C[C@H](O)C(=O)O.C[C@H](O)C(=O)O.[Zn] [Zn(Lac)2, L-lactic Acid (Lac)/zinc(II) complex] | –
0.8 | O=C1O[C@H]([C@@H](O)CO)C(O)=C1[O-].O=C1O[C@H]([C@@H](O)CO)C(O)=C1[O-].[Zn+2] [Zn(Vit-C)2, bis(L-ascorbic acid)/zinc(II) complex] | –
0.8 | L-carnitine (γ-trimethyl-β-hydroxybutyrobetaine=Car)/zinc(II) complex [Zn(Car)2Cl2] | –
0.85 | bis(2-aminomethylpyridine)/zinc(II) complex [Zn(2-AM-py)2Cl2] | blood glucose level after 120 minutes ([2]; FIG. 19, 13-hour fasting after 14-day intraperitoneal administration, 1 g/kg glucose orally): almost the normal level; peak top of blood glucose level after glucose administration ([2]; FIG. 19, 13-hour fasting after 14-day intraperitoneal administration, 1 g/kg glucose orally, vs no complex administration): low peak top; blood glucose level after 120 minutes ([2]; FIG. 20, 13-hour fasting after 14-day administration, 1 g/kg glucose orally): almost the normal level; peak top of blood glucose level after glucose administration ([2]; FIG. 20, 13-hour fasting after 14-day administration, vs oral L-carnitine and acacia solution alone): low peak top
0.98 | bis(quinic acid)/zinc(II) complex [Zn(Qui)2] | effect in glucose load test compared with Zn(2-AM-py)2Cl2 or Zn(Car)2Cl2 [2]: somewhat lower; diabetic condition in glucose load test [2]: significantly ameliorated
0.84 | bis(vitamin U)/zinc(II) complex [Zn(Vit-U)Cl2] | effect in glucose load test compared with Zn(2-AM-py)2Cl2 or Zn(Car)2Cl2 [2]: somewhat lower; diabetic condition in glucose load test [2]: significantly ameliorated
0.4 | bis-(R)-2-(1-aminoethyl)pyridine (=α-pyridylethylamine)/zinc(II) complex [Zn((R)-2-AM-py)2Cl2] | –
0.39 | bis-(S)-2-(1-aminoethyl)pyridine/zinc(II) complex [Zn((S)-2-AM-py)2Cl2] | –

Molecule | IC50 [1] [mM] | further results
O=S(=O)([O-])[O-].[O]=[V+2] [VOSO4, oxovanadium sulfate, reference compound] | 1 | –
bis(glycyl-N,N′-ethylene-L-alanyl-L-alanine ethyl ester)/zinc(II) complex [Zn(Gly-eAA-OEt)2Cl2] | 0.85 | –

From patent US7226935B2, “Hypoglycemic agent” (Japan Science and Technology Corporation, priority 2001, dated 2007)
